Results reported in patent publication US20100168102A9, “Amide Derivatives as Kinase Inhibitors” (Devgen NV, priority 2005, published 2010).
Counter-ions that a name gives are not always drawn. Like-named read-outs stand apart in the source and are kept apart here.

Key:
PKC epsilon = target: T1, PKC epsilon (Homo sapiens, UniProt Q02156); assay: Biochemical assay for PKC epsilon (fluorescence polarization, Protein Kinase C Assay Kit, Red); conditions: read-out: IC50 μM PKCε
T1 construct: purchased Invitrogen P2282
T1 sequence (Q02156 1-737): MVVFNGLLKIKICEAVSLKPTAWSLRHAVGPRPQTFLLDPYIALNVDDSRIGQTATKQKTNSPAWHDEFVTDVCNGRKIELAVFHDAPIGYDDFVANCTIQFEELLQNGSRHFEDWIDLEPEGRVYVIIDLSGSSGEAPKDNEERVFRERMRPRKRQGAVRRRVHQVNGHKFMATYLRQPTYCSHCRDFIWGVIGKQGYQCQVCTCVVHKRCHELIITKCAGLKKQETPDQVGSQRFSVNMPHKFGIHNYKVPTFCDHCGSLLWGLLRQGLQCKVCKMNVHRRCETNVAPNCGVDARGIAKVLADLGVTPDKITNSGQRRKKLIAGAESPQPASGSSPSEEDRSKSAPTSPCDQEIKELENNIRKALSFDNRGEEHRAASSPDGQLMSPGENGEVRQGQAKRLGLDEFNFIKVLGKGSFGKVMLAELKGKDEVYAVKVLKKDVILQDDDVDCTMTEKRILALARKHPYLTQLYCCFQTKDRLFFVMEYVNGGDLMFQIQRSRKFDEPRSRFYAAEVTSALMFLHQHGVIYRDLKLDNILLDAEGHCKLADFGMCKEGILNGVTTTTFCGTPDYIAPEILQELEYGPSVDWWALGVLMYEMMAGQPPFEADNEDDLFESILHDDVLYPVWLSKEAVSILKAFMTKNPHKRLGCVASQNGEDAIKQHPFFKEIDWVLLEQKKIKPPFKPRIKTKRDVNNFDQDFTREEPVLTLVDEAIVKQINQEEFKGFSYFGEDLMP
How it was run: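 PKC epsilon at 10 ng/ml final was preincubated 30 min at room temperature with compound in HEPES pH 7.4 with DTT and Triton X-100. ATP/protein substrate was then added in buffer with MgCl2 and CaCl2 for 80 min. The reaction was stopped with EDTA, phosphorylation was detected by fluorescence polarization with rhodamine tracer and anti-phosphoserine antibody, and IC50 values came from curve fits.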

human ROCKα/ROCKII mix = target: T2, human ROCKα/ROCKII mix (Homo sapiens, UniProt O75116); assay: Biochemical assay for ROCK (fluorescence polarization, ROCK IMAP Kit)
T2 construct: purchased Upstate Biotechnology 14-451
T2 sequence (O75116 11-552 limits assumed): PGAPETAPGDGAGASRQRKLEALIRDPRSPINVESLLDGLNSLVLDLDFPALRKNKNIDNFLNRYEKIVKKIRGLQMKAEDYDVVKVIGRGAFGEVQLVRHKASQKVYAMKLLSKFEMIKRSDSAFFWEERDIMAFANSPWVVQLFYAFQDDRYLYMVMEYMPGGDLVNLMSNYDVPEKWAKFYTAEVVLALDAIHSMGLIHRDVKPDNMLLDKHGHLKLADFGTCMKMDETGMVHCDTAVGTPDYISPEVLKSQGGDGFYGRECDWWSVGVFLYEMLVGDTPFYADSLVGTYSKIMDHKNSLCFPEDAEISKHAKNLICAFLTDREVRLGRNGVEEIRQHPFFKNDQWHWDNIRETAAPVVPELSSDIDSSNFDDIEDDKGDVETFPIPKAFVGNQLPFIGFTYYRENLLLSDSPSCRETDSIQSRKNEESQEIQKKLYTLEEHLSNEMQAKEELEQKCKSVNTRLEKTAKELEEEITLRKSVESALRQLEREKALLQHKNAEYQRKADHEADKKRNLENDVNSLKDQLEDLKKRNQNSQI

[1] = compounds of Formula XIV, Table 3
[2] = Table 2, compounds of Formula XIII

Row | Compound | IC50 (PKC epsilon; [2]) [µM] | IC50 (human ROCKα/ROCKII mix; [2]) [µM] | further results
1 | NC(CC(=O)NCCc1ccc(Cl)cc1)c1ccc(C(=O)Nc2ccncc2)cc1 (stereo not shown) [Compound 299, 4-{1-Amino-2-[2-(4-chloro-phenyl)-ethylcarbamoyl]-ethyl}-N-pyridin-4-yl-benzamide] |  |  | IC50 (PKC epsilon; [1]): 0.5 to 5 µM; IC50 (human ROCKα/ROCKII mix; [1]): 0.05 to 0.5 µM
2 | N#CCC(=O)NCC(N)c1ccc(C(=O)Nc2ccncc2)cc1 (stereo not shown) [Compound 54, 4-[1-Amino-2-(2-cyano-acetylamino)-ethyl]-N-pyridin-4-yl-benzamide] | 0.5 to 5 | 0.05 to 0.5 | 
3 | Cc1ccccc1CC(=O)NCC(N)c1ccc(C(=O)Nc2ccncc2)cc1 (stereo not shown) [Compound 142, 4-{1-Amino-2-[2-(2-methyl-phenyl)-acetylamino]-ethyl}-N-pyridin-4-yl-benzamide] | 0.5 to 5 | 0.05 to 0.5 | 
4 | NC(CNC(=O)c1csc(Nc2ccc(F)cc2)n1)c1ccc(C(=O)Nc2ccncc2)cc1 (stereo not shown) [Compound 125, 2-(4-Fluoro-phenylamino)-thiazole-4-carboxylic acid {2-amino-2-[4-(pyridin-4-ylcarbamoyl)phenyl]-ethyl}-amide] | 0.5 to 5 | 0.5 to 5 | 
5 | NC(c1ccc(C(=O)Nc2ccncc2)cc1)C1CCCN1C(=O)Cc1c(F)cccc1Cl (stereo not shown) [Compound 597, 4-(Amino-{1-[2-(2-chloro-6-fluoro-phenyl)-acetyl]-pyrrolidin-2-yl}-methyl)-N-pyridin-4-yl-benzamide] |  |  | IC50 (PKC epsilon): 5 to 50 µM; IC50 (human ROCKα/ROCKII mix): 0.5 to 5 µM
6 | CC(Cc1ccc(Cl)cc1)NC(=O)CC(N)c1ccc(C(=O)Nc2ccncc2)cc1 (stereo not shown) [Compound 300, 4-{1-Amino-2-(2-(4-chloro-phenyl)-1-methyl-ethylcarbamoyl]-ethyl}-N-pyridin-4-yl-benzamide] |  |  | IC50 (PKC epsilon; [1]): 0.5 to 5 µM; IC50 (human ROCKα/ROCKII mix; [1]): 0.05 to 0.5 µM
7 | NC(CNC(=O)NC1CCCC1)c1ccc(C(=O)Nc2ccncc2)cc1 (stereo not shown) [Compound 4, 4-[1-amino-2-(3-cyclopentyl-ureido)-ethyl]-N-pyridin-4-yl-benzamide] |  |  | IC50 (PKC epsilon): 0.5 to 5 µM; IC50 (human ROCKα/ROCKII mix): 0.5 to 5 µM
8 | 4-{1-Amino-2-[(2- benzo[1,3]dioxol-5-yl- acetyl)-methyl-amino]-ethyl}- N-pyridin-4-yl-benzamide [Compound 432] |  |  | IC50 (PKC epsilon): 5 to 50 µM; IC50 (human ROCKα/ROCKII mix): 0.5 to 5 µM
9 | NC(CNC(=O)c1ccccc1Nc1ccccc1)c1ccc(C(=O)Nc2ccncc2)cc1 (stereo not shown) [Compound 82, 4-[1-amino-2-(2-phenylamino-benzoylamino)-ethyl]-N-pyridin-4-yl-benzamide] | 0.5 to 5 | 0.5 to 5 | 
10 | NC(c1ccc(C(=O)Nc2ccncc2)cc1)C1CCCN1C(=O)C1(c2ccsc2)CC1 (stereo not shown) [Compound 551, 4-{Amino-[1-(1-thiophen-3-yl-cyclopropanecarbonyl)-pyrrolidin-2-yl]-methyl}-N-pyridin-4-yl-benzamide] |  |  | IC50 (PKC epsilon): 5 to 50 µM; IC50 (human ROCKα/ROCKII mix): 0.5 to 5 µM
11 | COCCC(=O)NCC(N)c1ccc(C(=O)Nc2ccncc2)cc1 (stereo not shown) [Compound 58, 4-[1-Amino-2-(3-methoxy-propionylamino)-ethyl]-N-pyridin-4-yl-benzamide] | 5 to 50 | 0.5 to 5 | 
12 | NC(CNC(=O)c1cccc(S(=O)(=O)Nc2ccccc2)c1)c1ccc(C(=O)Nc2ccncc2)cc1 (stereo not shown) [Compound 99, 4-[1-amino-2-(3-phenylsulfamoyl-benzoylamino)-ethyl]-N-pyridin-4-yl-benzamide] | 0.5 to 5 | 0.5 to 5 | 
13 | CCCC(=O)NCC(N)c1ccc(C(=O)Nc2ccncc2)cc1 (stereo not shown) [Compound 32, 4-(1-Amino-2-butyrylamino-ethyl)-N-pyridin-4-y-benzamide] | 0.5 to 5 | 0.5 to 5 | 
14 | CCN(CC)c1ccc(C(=O)NCC(N)c2ccc(C(=O)Nc3ccncc3)cc2)cc1 (stereo not shown) [Compound 81, 4-[1-amino-2-(4-diethylamino-benzoylamino)-ethyl]-N-pyridin-4-yl-benzamide] | 5 to 50 | 0.5 to 5 | 
15 | NC(CNC(=O)c1cccc2ccccc12)c1ccc(C(=O)Nc2ccncc2)cc1 (stereo not shown) [Compound 71] | 0.5 to 5 | 0.5 to 5 | 
16 | NC(CNC(=O)c1cc2cc(F)ccc2[nH]1)c1ccc(C(=O)Nc2ccncc2)cc1 (stereo not shown) [Compound 129, 5-Fluoro-1H-indole-2-carboxylic acid {2-amino-2-[4-(pyridin-4-ylcarbamoyl)-phenyl]-ethyl}-amide] | 5 to 50 | 0.5 to 5 | 

Row | Compound | IC50 (PKC epsilon; [2]) [µM] | IC50 (human ROCKα/ROCKII mix; [2]) [µM] | further results
17 | 4-{1-Amino-2-[(thiophen-2- ylmethyl)-carbamoyl]-ethyl}- N-pyridin-4-yl-benzamide [Compound 279] |  |  | IC50 (PKC epsilon; [1]): 0.5 to 5 µM; IC50 (human ROCKα/ROCKII mix; [1]): 0.05 to 0.5 µM
18 | COc1ccc(CC(=O)N(C)CC(N)c2ccc(C(=O)Nc3ccncc3)cc2)c(OC)c1 (stereo not shown) [Compound 430, 4-(1-Amino-2-{[2-(2,4-dimethoxy-phenyl)-acetyl]-methyl-amino}-ethyl)-N-pyridin-4-yl-benzamide] |  |  | IC50 (PKC epsilon): 5 to 50 µM; IC50 (human ROCKα/ROCKII mix): 0.05 to 0.5 µM
19 | NC(CNC(=O)Cc1ccc(F)c(F)c1)c1ccc(C(=O)Nc2ccncc2)cc1 (stereo not shown) [Compound 167, 4-{1-Amino-2-[2-(3,4-difluoro-phenyl)-acetylamino]-ethyl}-N-pyridin-4-yl-benzamide dihydrochloride] | 0.05 to 0.5 | 0.05 to 0.5 | 
20 | NC(CC(=O)NCCc1ccccc1Cl)c1ccc(C(=O)Nc2ccncc2)cc1 (stereo not shown) [Compound 297, 4-{1-Amino-2-[2-(2-chloro-phenyl)-ethylcarbamoyl]-ethyl}-N-pyridin-4-yl-benzamide] |  |  | IC50 (PKC epsilon; [1]): 0.5 to 5 µM; IC50 (human ROCKα/ROCKII mix; [1]): 0.05 to 0.5 µM
21 | CCOc1ccccc1CCNC(=O)CC(N)c1ccc(C(=O)Nc2ccncc2)cc1 (stereo not shown) [Compound 288, 4-{1-Amino-2-[2-(2-ethoxy-phenyl)-ethylcarbamoyl]-ethyl}-N-pyridin-4-yl-benzamide] |  |  | IC50 (PKC epsilon; [1]): 0.5 to 5 µM; IC50 (human ROCKα/ROCKII mix; [1]): 0.05 to 0.5 µM
22 | CC(C)(NC(=O)CC(N)c1ccc(C(=O)Nc2ccncc2)cc1)c1ccccc1 (stereo not shown) [Compound 218, 4-[1-Amino-2-(1-methyl-1-phenyl-ethylcarbamoyl)-ethyl]-N-pyridin-4-yl-benzamide] |  |  | IC50 (PKC epsilon; [1]): 0.5 to 5 µM; IC50 (human ROCKα/ROCKII mix; [1]): 0.05 to 0.5 µM
23 | NC(CC(=O)NCc1ccc(F)c(C(F)(F)F)c1)c1ccc(C(=O)Nc2ccncc2)cc1 (stereo not shown) [Compound 266, 4-[1-Amino-2-(4-fluoro-3-trifluoromethyl-benzylcarbamoyl)-ethyl]-N-pyridin-4-yl-benzamide] |  |  | IC50 (PKC epsilon; [1]): 0.5 to 5 µM; IC50 (human ROCKα/ROCKII mix; [1]): 0.05 to 0.5 µM
24 | CC(C)(C)ON=Cc1cccc(C(=O)NCC(N)c2ccc(C(=O)Nc3ccncc3)cc2)c1 (racemic) [Compound 101, 4-{1-amino-2-[(3-tert-butoxyimino-methyl)-benzoylamino]-ethyl}-N-pyridin-4-yl-benzamide] | 0.5 to 5 | 0.5 to 5 | 
25 | NC(CNC(=O)c1ccccn1)c1ccc(C(=O)Nc2ccncc2)cc1 (stereo not shown) [Compound 105, Pyridine-2-carboxylic acid {2-amino-2-[4-(pyridin-4-ylcarbamoyl)-phenyl]-ethyl}-amide] | 5 to 50 | 0.5 to 5 | 
26 | COc1ccc(CCNC(=O)CC(N)c2ccc(C(=O)Nc3ccncc3)cc2)cc1OC (stereo not shown) [Compound 293, 4-{1-Amino-2-[2-(3,4-dimethoxy-phenyl)-ethylcarbamoyl]-ethyl}-N-pyridin-4-yl-benzamide] |  |  | IC50 (PKC epsilon; [1]): 5 to 50 µM; IC50 (human ROCKα/ROCKII mix; [1]): 0.5 to 5 µM
27 | NC(c1ccc(C(=O)Nc2ccncc2)cc1)C1CCCN1C(=O)Cc1ccc(Cl)cc1F (stereo not shown) [Compound 598, 4-(Amino-{1-[2-(4-chloro-2-fluoro-phenyl)-acetyl]-pyrrolidin-2-yl}-methyl)-N-pyridin-4-yl-benzamide] |  |  | IC50 (PKC epsilon): 5 to 50 µM; IC50 (human ROCKα/ROCKII mix): 0.5 to 5 µM
28 | NC(CNC(=O)Cc1cccc(Cl)c1)c1ccc(C(=O)Nc2ccncc2)cc1 (stereo not shown) [Compound 147, 4-{1-Amino-2-[2-(3-chloro-phenyl)-acetylamino]-ethyl}-N-pyridin-4-yl-benzamide] | 0.5 to 5 | 0.05 to 0.5 | 
29 | NC(c1ccc(C(=O)Nc2ccncc2)cc1)C1CCCN1C(=O)C1(c2ccc(Cl)cc2)CC1 (stereo not shown) [Compound 564, 4-(Amino-{1-[1-(4-chloro-phenyl)-cyclopropanecarbonyl]-pyrrolidin-2-yl}-methyl)-N-pyridin-4-yl-benzamide] |  |  | IC50 (PKC epsilon): 0.5 to 5 µM; IC50 (human ROCKα/ROCKII mix): 0.5 to 5 µM
30 | NC(CNC(=O)Cc1ccc2ccccc2c1)c1ccc(C(=O)Nc2ccncc2)cc1 (stereo not shown) [Compound 135, 4-[1-Amino-2-(2-naphtalen-2-yl-acetylamino)-ethyl]-N-pyridin-4-yl-bennzamide] | 5 to 50 | 0.5 to 5 | 
31 | 4-(1-amino-2-benzoylamino-ethyl)- N-pyridin-4-yl-benzamide [Compound 69] | 0.5 to 5 | 0.05 to 0.5 | 
32 | NC(CNC(=O)c1cccc(Br)c1)c1ccc(C(=O)Nc2ccncc2)cc1 (stereo not shown) [Compound 91, 4-[1-amino-2-(3-bromo-benzoylamino)-ethyl]-N-pyridin-4-yl-benzamide] | 0.5 to 5 | 0.5 to 5 | 
